Measurements as given in patent US20230117034A1, “PYRAZOLOTRIAZINES” (Bayer Aktiengesellschaft, priority 2019, published 2023).

Assays:
Format in all cases: cell-based
[1] = tested on: MDA-MB-231, human breast cancer cells; assay: Proliferation assay MDA-MB-231 (crystal violet, 4 days); conditions: Homo sapiens, MDA-MB-231, 96 h, MDA-MB-231 cells, median, read-out: Prolif-MDA MB-231, IC50-[mol/l] (median)
Method: (§1) Human tumour cells were originally obtained from the American Type Culture Collection (ATCC), or from the Deutsche Sammlung von Mikroorganismen und Zellkulturen (DSMZ, German Collection of Microorganisms and Cell Cultures). Cultivated tumour cells (CAL-120, human breast adenocarcinoma cells, DSMZ ACC-459; MDA-MB-231, human breast cancer cells, ATCC HTB-26) were plated at a density of 4,000 cells/well in a 96-well multititer plate in 200 microL of their respective growth medium supplemented 10% fetal calf serum. After 24 hours, the cells of one plate (zero-point plate) were stained with crystal violet (see below), while the medium of the other plates was supplemented with the test substances in various concentrations (0 micromol/L, as well as in the range of 0.01-10 micromol/L; the final concentration of the solvent dimethyl sulfoxide was adjusted to 0.1%) using a Tecan HP D300 Digital Dispenser. The cells were incubated for 4 days in the presence of test substances. Cell proliferation was determined by staining the cells with crystal violet: the cells were fixed by adding 20 microL/measuring point of an 11% glutaric aldehyde solution for 15 minutes at room temperature. After three washing cycles of the fixed cells with water, the plates were dried at room temperature. The cells were stained by adding 100 microL/measuring point of a 0.1% crystal violet solution (pH 3.0). After three washing cycles of the stained cells with water, the plates were dried at room temperature. The dye was dissolved by adding 100 microL/measuring point of a 10% acetic acid solution. The extinction was determined by photometry at a wavelength of 595 nm. The change of cell number, in percent, was calculated by normalization of the measured values to the extinction values of the zero-point plate (=0%) and the extinction of the untreated (0 μM) cells (=100%). The IC50 values (inhibitory concentration at 50% of maximal effect) were determined by means of a 4 parameter fit.

[2] = tested on: CAL-120, human breast adenocarcinoma cells; assay: Proliferation assay CAL-120 (crystal violet, 4 days); conditions: Homo sapiens, CAL-120, 96 h, CAL-120 cells, median, read-out: Prolif-CAL-120, IC50-[mol/l] (median)
Method: as §1

[3] = molecular target: T1, CDK12 (nuclear staining in CAL-120 cells) (Homo sapiens, UniProt Q9NYV4); assay: CDK12 nuclear protein level: immunofluorescence/high content analysis (CAL-120); conditions: for DC50: CAL-120 cells, 24 h, immunofluorescence, 50% reduction of nuclear CDK12 staining intensity, median, read-out: CDK12 degradation IF, DC50- [mol/l] (median); for (IC50 CDK12 high ATP) to (Degradation DC50 CDK12) ratio: ratio of IC50 CDK12 high ATP kinase assay to DC50 CDK12 degradation (IF, CAL-120)
T1 construct: endogenous in cells; host or cells: CAL-120 human breast cancer cells (DSMZ ACC 459)
T1 sequence (Q9NYV4 whole entry): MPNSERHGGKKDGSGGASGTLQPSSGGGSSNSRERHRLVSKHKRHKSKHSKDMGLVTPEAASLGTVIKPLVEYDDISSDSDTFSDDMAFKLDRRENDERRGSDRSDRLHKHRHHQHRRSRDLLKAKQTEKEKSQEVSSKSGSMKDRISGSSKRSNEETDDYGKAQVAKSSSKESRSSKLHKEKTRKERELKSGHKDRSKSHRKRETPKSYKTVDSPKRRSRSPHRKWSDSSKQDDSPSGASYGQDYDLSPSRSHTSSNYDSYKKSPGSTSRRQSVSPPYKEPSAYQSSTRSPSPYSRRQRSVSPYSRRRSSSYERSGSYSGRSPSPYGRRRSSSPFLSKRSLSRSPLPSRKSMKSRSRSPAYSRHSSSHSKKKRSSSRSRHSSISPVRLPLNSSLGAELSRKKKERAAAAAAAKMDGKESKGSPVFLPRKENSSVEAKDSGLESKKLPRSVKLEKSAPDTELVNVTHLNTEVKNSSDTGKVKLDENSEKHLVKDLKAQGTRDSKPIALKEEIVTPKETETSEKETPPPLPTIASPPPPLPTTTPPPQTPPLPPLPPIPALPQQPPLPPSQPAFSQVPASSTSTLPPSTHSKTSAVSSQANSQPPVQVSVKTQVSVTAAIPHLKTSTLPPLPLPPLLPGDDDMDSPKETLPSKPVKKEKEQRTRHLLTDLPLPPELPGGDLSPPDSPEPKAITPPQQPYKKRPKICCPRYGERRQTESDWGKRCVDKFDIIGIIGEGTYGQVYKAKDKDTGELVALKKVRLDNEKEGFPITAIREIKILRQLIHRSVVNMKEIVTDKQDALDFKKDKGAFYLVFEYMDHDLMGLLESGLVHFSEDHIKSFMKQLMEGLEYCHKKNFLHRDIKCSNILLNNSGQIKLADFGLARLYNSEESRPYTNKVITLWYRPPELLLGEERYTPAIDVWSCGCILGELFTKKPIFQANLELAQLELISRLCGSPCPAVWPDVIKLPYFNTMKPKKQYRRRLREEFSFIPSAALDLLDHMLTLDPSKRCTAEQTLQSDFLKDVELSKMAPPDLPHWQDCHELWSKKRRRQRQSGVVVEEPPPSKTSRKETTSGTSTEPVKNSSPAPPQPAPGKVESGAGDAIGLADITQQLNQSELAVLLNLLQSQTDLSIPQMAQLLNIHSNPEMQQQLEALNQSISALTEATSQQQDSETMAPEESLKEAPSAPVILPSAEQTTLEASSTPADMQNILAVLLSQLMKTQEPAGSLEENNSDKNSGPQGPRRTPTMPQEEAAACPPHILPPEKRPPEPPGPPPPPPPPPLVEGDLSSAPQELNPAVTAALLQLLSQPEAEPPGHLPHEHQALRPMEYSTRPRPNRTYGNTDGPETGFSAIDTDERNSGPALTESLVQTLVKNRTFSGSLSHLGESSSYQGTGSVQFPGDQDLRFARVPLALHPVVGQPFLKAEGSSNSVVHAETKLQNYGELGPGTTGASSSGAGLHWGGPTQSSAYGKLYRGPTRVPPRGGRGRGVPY
T1 sequence (O75909 whole entry partner): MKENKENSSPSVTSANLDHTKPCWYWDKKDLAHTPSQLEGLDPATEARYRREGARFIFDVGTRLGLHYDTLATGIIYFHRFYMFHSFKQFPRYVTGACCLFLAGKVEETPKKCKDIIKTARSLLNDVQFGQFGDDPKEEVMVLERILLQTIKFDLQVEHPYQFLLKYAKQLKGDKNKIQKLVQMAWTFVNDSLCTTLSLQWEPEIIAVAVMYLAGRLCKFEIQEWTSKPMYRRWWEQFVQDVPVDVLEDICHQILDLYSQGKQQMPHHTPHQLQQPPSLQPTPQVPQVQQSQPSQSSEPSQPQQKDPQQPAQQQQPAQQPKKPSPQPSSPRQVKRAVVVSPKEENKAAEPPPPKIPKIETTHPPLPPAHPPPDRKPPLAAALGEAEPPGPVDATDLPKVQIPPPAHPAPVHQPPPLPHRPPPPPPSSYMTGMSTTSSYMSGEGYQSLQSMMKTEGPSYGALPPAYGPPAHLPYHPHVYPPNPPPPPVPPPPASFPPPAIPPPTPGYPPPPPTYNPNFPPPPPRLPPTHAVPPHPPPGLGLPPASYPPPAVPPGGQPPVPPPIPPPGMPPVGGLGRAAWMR
Method: In the context of the present invention, the term “DC50 CDK12” refers to the DC50 values obtained according to the assay described in this section (7) herein below, i.e. the DC50 values for the degradation of CDK12.
Plates are then incubated for 24 h at 37° C. in an humidified incubator and fixed with 4% PFA for 10 min. […] Nuclear and cytoplasmic intensity as well as the nuclear/cytoplasmic intensity ratio is determined by automated image analysis using custom generated scripts (MetaXpress). Data is then transferred to Genedata Screener software, normalized to DMSO and control and DC50 values (degrading concentration to achieve 50% reduction of nuclear CDK12 staining intensity relative to controls) are reported.

| IC50 [1] [nM] | IC50 [2] [nM] | DC50 [3] [nM] | (IC50 CDK12 high ATP) to (Degradation DC50 CDK12) ratio [3] | Compound |
| --- | --- | --- | --- | --- |
| 315 | 255 | 58.3 | 140 | C[C@@H]1CCCCN1c1nc(NCc2nc3ccccc3[nH]2)n2ncc(Br)c2n1 [Example 140, N-[(1H-benzimidazol-2-yl)methyl]-8-bromo-2-[(2R)-2-methylpiperidin-1-yl]pyrazolo[1,5-a][1,3,5]triazin-4-amine] |
| 11.7 | 11.6 | 0.991 | >17850 | CN1CCN(c2nc(NCc3nc4cc(F)ccc4[nH]3)n3ncc(Br)c3n2)CC1 [Example 134, 8-bromo-N-[(5-fluoro-1H-benzimidazol-2-yl)methyl]-2-(4-methylpiperazin-1-yl)pyrazolo[1,5-a][1,3,5]triazin-4-amine] |
| 26.4 | 17.1 | 3.61 | 1140 | CN1CCN(c2nc(NCc3nnc(-c4cccc(F)c4)[nH]3)n3ncc(Br)c3n2)CC1 [Example 136, 8-bromo-N-{[5-(3-fluorophenyl)-4H-1,2,4-triazol-3-yl]methyl}-2-(4-methylpiperazin-1-yl)pyrazolo[1,5-a][1,3,5]triazin-4-amine] |
| 16.1 |  | 3.32 | 537 | CC(C)c1cnn2c(NCc3nc4ccccc4[nH]3)nc(N3CCOC[C@@H]3C)nc12 [Example 6, N-[(1H-benzimidazol-2-yl)methyl]-2-[(3S)-3-methylmorpholin-4-yl]-8-(propan-2-yl)pyrazolo[1,5-a][1,3,5]triazin-4-amine] |
| 1180 |  | 80.9 | >247 | CC(C)c1cnn2c(NCc3nc4ccccc4[nH]3)nc(N3CC4(COC4)C3)nc12 [Example 9, N-[(1H-benzimidazol-2-yl)methyl]-2-(2-oxa-6-azaspiro[3.3]heptan-6-yl)-8-(propan-2-yl)pyrazolo[1,5-a][1,3,5]triazin-4-amine] |
|  | 7.75 | 1.54 | 4303 | Brc1cnn2c(NCc3nnc(-c4ccccc4)[nH]3)nc(N3CCNCC3)nc12.O=CO [Example 119, 8-bromo-N-[(5-phenyl-4H-1,2,4-triazol-3-yl)methyl]-2-piperazin-1-yl-pyrazolo[1,5-a][1,3,5]triazin-4-amine formate] |
|  | 53.1 | 6.3 | 1724 | C[C@@H]1CN(c2nc(NCc3nnc(-c4ccccc4)[nH]3)n3ncc(Br)c3n2)C[C@H](C)N1C [Example 125, 8-bromo-N-[(5-phenyl-4H-1,2,4-triazol-3-yl)methyl]-2-[(3R,5S)-3,4,5-trimethylpiperazin-1-yl]pyrazolo[1,5-a][1,3,5]triazin-4-amine] |
|  | 23.1 | 3.77 | 1278 | Brc1cnn2c(NCc3nc4ccccc4[nH]3)nc(N3CCOCC3C3CC3)nc12 (stereo not drawn) [Example 117, N-(1H-benzimidazol-2-ylmethyl)-8-bromo-2-(3-cyclopropylmorpholin-4-yl)pyrazolo[1,5-a][1,3,5]triazin-4-amine] |
|  | 8.96 | 1.22 | >1337 | c1ccc2[nH]c(CNc3nc(N4CCOCC4)nc4c(-c5ccncc5)cnn34)nc2c1 [Example 111, N-[(1H-benzimidazol-2-yl)methyl]-2-(morpholin-4-yl)-8-(pyridin-4-yl)pyrazolo[1,5-a][1,3,5]triazin-4-amine hydrogen chloride (1/1)] |
|  | 27 | 1.41 | 4897 | Brc1cnn2c(NCc3nc4ccccc4[nH]3)nc(N3C[C@H]4C[C@@H]3CO4)nc12 [Example 102, N-[(1H-benzimidazol-2-yl)methyl]-8-bromo-2-[(1R,4R)-2-oxa-5-azabicyclo[2.2.1]heptan-5-yl]pyrazolo[1,5-a][1,3,5]triazin-4-amine] |
|  | 127 | 15.7 | >1272 | c1ccc(-c2cnn3c(NCc4nc5ccccc5[nH]4)nc(N4CCOCC4)nc23)cc1 [Example 104, N-[(1H-benzimidazol-2-yl)methyl]-2-(morpholin-4-yl)-8-phenylpyrazolo[1,5-a][1,3,5]triazin-4-amine] |
|  | 89.6 | 5.53 | >3617 | c1cncc(-c2cnn3c(NCc4nc5ccccc5[nH]4)nc(N4CCOCC4)nc23)c1 [Example 108, N-[(1H-benzimidazol-2-yl)methyl]-2-(morpholin-4-yl)-8-(pyridin-3-yl)pyrazolo[1,5-a][1,3,5]triazin-4-amine] |
|  | 47 | 4.44 | 1517 | CCC1COCCN1c1nc(NCc2nc3ccccc3[nH]2)n2ncc(Br)c2n1 (stereo not drawn) [Example 116, N-(1H-benzimidazol-2-ylmethyl)-8-bromo-2-(3-ethylmorpholin-4-yl)pyrazolo[1,5-a][1,3,5]triazin-4-amine] |
| 79.9 |  | 6.85 | 1277 | CC(C)c1cnn2c(NCc3nc4ccccc4[nH]3)nc(NCC(C)(C)O)nc12 [Example 10, 1-{[4-{[(1H-benzimidazol-2-yl)methyl]amino}-8-(propan-2-yl)pyrazolo[1,5-a][1,3,5]triazin-2-yl]amino}-2-methylpropan-2-ol] |
|  | 4.1 | 0.584 | 3856 | Fc1ccc2[nH]c(CNc3nc(N4CCOCC4)nc4c(Br)cnn34)nc2c1 [Example 101, 8-bromo-N-[(5-fluoro-1H-benzimidazol-2-yl)methyl]-2-(morpholin-4-yl)pyrazolo[1,5-a][1,3,5]triazin-4-amine] |
|  | 177 | 25 | 352 | CC1(C)CN(c2nc(NCc3nnc(-c4ccccc4)[nH]3)n3ncc(C4CC4)c3n2)CCO1 [Example 94, 8-cyclopropyl-2-(2,2-dimethylmorpholin-4-yl)-N-[(5-phenyl-4H-1,2,4-triazol-3-yl)methyl]pyrazolo[1,5-a][1,3,5]triazin-4-amine] |
|  | 47 | 11.4 | >876 | Fc1ccc(-c2cnn3c(NCc4nc5ccccc5[nH]4)nc(N4CCOCC4)nc23)cc1 [Example 106, N-[(1H-benzimidazol-2-yl)methyl]-8-(4-fluorophenyl)-2-(morpholin-4-yl)pyrazolo[1,5-a][1,3,5]triazin-4-amine] |
|  | 404 | 43.5 | 172 | CN1CCN(c2nc(NCc3nnc(-c4ccccc4)[nH]3)n3ncc(Br)c3n2)CC1=O [Example 121, 4-(8-bromo-4-{[(5-phenyl-4H-1,2,4-triazol-3-yl)methyl]amino}pyrazolo[1,5-a][1,3,5]triazin-2-yl)-1-methylpiperazin-2-one] |
|  | 83.2 | 4.37 | 2883 | CC1(C)CN(c2nc(NCc3nc4ccccc4[nH]3)n3ncc(C4CC4)c3n2)CCO1 [Example 123, N-[(1H-benzimidazol-2-yl)methyl]-8-cyclopropyl-2-(2,2-dimethylmorpholin-4-yl)pyrazolo[1,5-a][1,3,5]triazin-4-amine] |
|  | 188 | 57.7 | >347 | Clc1cccc(-c2cnn3c(NCc4nc5ccccc5[nH]4)nc(N4CCOCC4)nc23)c1 [Example 107, N-[(1H-benzimidazol-2-yl)methyl]-8-(3-chlorophenyl)-2-(morpholin-4-yl)pyrazolo[1,5-a][1,3,5]triazin-4-amine] |
